Experimental data taken from patent publication US20120029187A1, “HALOALKYLSULFONANILIDE DERIVATIVE” (Nissan Chemical Industries, Ltd., priority 2009, published 2012).

Tests used:
Type in all cases: in vivo
barnyardgrass [1] = experiment: Test Example 1: herbicidal effects in preemergence treatment under submerged conditions; conditions: dose 2.52 g/a
Method in brief: (§1)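 Scoring 0 (<5% mortality) to 5 (≥90%) was done three weeks after preemergence application to the water surface of submerged (4 cm) alluvial soil, doses given as g per are. Weeds were seeded and 2.5-leaf rice transplanted on the treatment day; greenhouse at 25–30 °C.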

bulrush [2] = experiment: as above; conditions: dose 2.52 g/a
Method in brief: as §1

ducksalad [3] = experiment: as above; conditions: dose 2.52 g/a
Method in brief: as §1

transplanted rice = experiment: Test Example 1: preemergence treatment under submerged conditions, effect on crop; conditions: dose 2.52 g/a
Method in brief: as §1

barnyardgrass [4] = experiment: Test Example 2: herbicidal effects during the vegetation period under submerged conditions; conditions: treatment during the vegetation period under submerged conditions; dose 2.52 g/a
Method in brief: (§2)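 Barnyardgrass, bulrush and ducksalad were co-sown in alluvial soil flooded to 4 cm and grown in a greenhouse at 25 to 30° C. At the 1- or 2-leaf stage, water-diluted emulsifiable concentrates went onto the water surface at set doses (g/a). Herbicidal effect was scored three weeks later on a graded scale.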

bulrush [5] = experiment: as above; conditions: treatment during the vegetation period under submerged conditions; dose 2.52 g/a
Method in brief: as §2

ducksalad [6] = experiment: as above; conditions: treatment during the vegetation period under submerged conditions; dose 2.52 g/a
Method in brief: as §2

Italian ryegrass [7] = experiment: Test Example 3: herbicidal effects in soil treatment; conditions: dose 3.2 g/a
Method in brief: (§3)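 Seeds were sown in sterilized diluvial soil and covered with about 1.5 cm of soil. Compounds, formulated as emulsifiable concentrates and diluted with water, were sprayed evenly over the soil surface at set doses in g/a. Herbicidal effect was scored on a rating scale three weeks later.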

barnyardgrass [8] = experiment: as above; conditions: dose 3.2 g/a
Method in brief: as §3

beadstraw [9] = experiment: as above; conditions: dose 3.2 g/a
Method in brief: as §3

common chickweed [10] = experiment: as above; conditions: dose 3.2 g/a
Method in brief: as §3

common lambsquater [11] = experiment: as above; conditions: dose 3.2 g/a
Method in brief: as §3

common ragweed [12] = experiment: as above; conditions: dose 3.2 g/a
Method in brief: as §3

giant foxtail [13] = experiment: as above; conditions: dose 3.2 g/a
Method in brief: as §3

large crabgrass [14] = experiment: as above; conditions: dose 3.2 g/a
Method in brief: as §3

redroot pigweed [15] = experiment: as above; conditions: dose 3.2 g/a
Method in brief: as §3

velvetleaf [16] = experiment: as above; conditions: dose 3.2 g/a
Method in brief: as §3

water foxtail [17] = experiment: as above; conditions: dose 3.2 g/a
Method in brief: as §3

wild oat [18] = experiment: as above; conditions: dose 3.2 g/a
Method in brief: as §3

Italian ryegrass [19] = experiment: Test Example 4: herbicidal effect in foliage treatment; conditions: dose 3.2 g/a, three weeks after application
Method in brief: (§4)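 Seeds sown in sterilized diluvial soil under ~1.5 cm soil cover and grown 14 days in a greenhouse at 25 to 30° C. Emulsifiable concentrates diluted with water were then sprayed uniformly on foliage at predetermined doses (g/a). Herbicidal effect was scored three weeks after application on a graded evaluation scale.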

barnyardgrass [20] = experiment: as above; conditions: dose 3.2 g/a, three weeks after application
Method in brief: as §4

beadstraw [21] = experiment: as above; conditions: dose 3.2 g/a, three weeks after application
Method in brief: as §4

common chickweed [22] = experiment: as above; conditions: dose 3.2 g/a, three weeks after application
Method in brief: as §4

common lambsquater [23] = experiment: as above; conditions: dose 3.2 g/a, three weeks after application
Method in brief: as §4

common ragweed [24] = experiment: as above; conditions: dose 3.2 g/a, three weeks after application
Method in brief: as §4

giant foxtail [25] = experiment: as above; conditions: dose 3.2 g/a, three weeks after application
Method in brief: as §4

large crabgrass [26] = experiment: as above; conditions: dose 3.2 g/a, three weeks after application
Method in brief: as §4

posumbu knotweed = experiment: as above; conditions: dose 3.2 g/a, three weeks after application
Method in brief: as §4

redroot pigweed [27] = experiment: as above; conditions: dose 3.2 g/a, three weeks after application
Method in brief: as §4

velvetleaf [28] = experiment: as above; conditions: dose 3.2 g/a, three weeks after application
Method in brief: as §4

water foxtail [29] = experiment: as above; conditions: dose 3.2 g/a, three weeks after application
Method in brief: as §4

wild oat [30] = experiment: as above; conditions: dose 3.2 g/a, three weeks after application
Method in brief: as §4

| Compound | A: barnyardgrass, herbicidal effect (evaluation scale 0-5) (barnyardgrass [1]) | B: bulrush, herbicidal effect (evaluation scale 0-5) (bulrush [2]) | C: ducksalad, herbicidal effect (evaluation scale 0-5) (ducksalad [3]) | a: transplanted rice, effect on crop (evaluation scale 0-5) (transplanted rice) | A: barnyardgrass, herbicidal effect (evaluation scale 0-5) (barnyardgrass [4]) | B: bulrush, herbicidal effect (evaluation scale 0-5) (bulrush [5]) | C: ducksalad, herbicidal effect (evaluation scale 0-5) (ducksalad [6]) | H: Italian ryegrass, herbicidal effect (evaluation scale 0-5) (Italian ryegrass [7]) | A: barnyardgrass, herbicidal effect (evaluation scale 0-5) (barnyardgrass [8]) | O: beadstraw, herbicidal effect (evaluation scale 0-5) (beadstraw [9]) | N: common chickweed, herbicidal effect (evaluation scale 0-5) (common chickweed [10]) | L: common lambsquater, herbicidal effect (evaluation scale 0-5) (common lambsquater [11]) | J: common ragweed, herbicidal effect (evaluation scale 0-5) (common ragweed [12]) | E: giant foxtail, herbicidal effect (evaluation scale 0-5) (giant foxtail [13]) | D: large crabgrass, herbicidal effect (evaluation scale 0-5) (large crabgrass [14]) | K: redroot pigweed, herbicidal effect (evaluation scale 0-5) (redroot pigweed [15]) | I: velvetleaf, herbicidal effect (evaluation scale 0-5) (velvetleaf [16]) | G: water foxtail, herbicidal effect (evaluation scale 0-5) (water foxtail [17]) | F: wild oat, herbicidal effect (evaluation scale 0-5) (wild oat [18]) | H: Italian ryegrass, herbicidal effect (Italian ryegrass [19]) | also measured |
| --- | --- | --- | --- | --- | --- | --- | --- | --- | --- | --- | --- | --- | --- | --- | --- | --- | --- | --- | --- | --- | --- |
| COC(=O)N(c1ccccc1CN1COC(C)(C)C(F)C1=O)S(=O)(=O)C(F)(F)F (stereo not shown) [II-33] | 5 (mortality of 90% or above (nearly complete death)) | 5 (mortality of 90% or above (nearly complete death)) | 5 (mortality of 90% or above (nearly complete death)) | 0 (mortality of less than 5% (almost ineffective)) | 5 (mortality of 90% or above (nearly complete death)) | 5 (mortality of 90% or above (nearly complete death)) | 5 (mortality of 90% or above (nearly complete death)) | 4 (mortality of at least 70% and less than 90%) | 5 (mortality of 90% or above (nearly complete death)) | 4 (mortality of at least 70% and less than 90%) | 3 (mortality of at least 40% and less than 70%) | 0 (mortality of less than 5% (almost ineffective)) | 5 (mortality of 90% or above (nearly complete death)) | 5 (mortality of 90% or above (nearly complete death)) | 5 (mortality of 90% or above (nearly complete death)) | 3 (mortality of at least 40% and less than 70%) | 4 (mortality of at least 70% and less than 90%) | 5 (mortality of 90% or above (nearly complete death)) | 0 (mortality of less than 5% (almost ineffective)) | 4 (mortality of at least 70% and less than 90%) | A: barnyardgrass, herbicidal effect (barnyardgrass [20]): 4 (mortality of at least 70% and less than 90%); O: beadstraw, herbicidal effect (beadstraw [21]): 4 (mortality of at least 70% and less than 90%); N: common chickweed, herbicidal effect (common chickweed [22]): 3 (mortality of at least 40% and less than 70%); L: common lambsquater, herbicidal effect (common lambsquater [23]): 0 (mortality of less than 5% (almost ineffective)); J: common ragweed, herbicidal effect (common ragweed [24]): 3 (mortality of at least 40% and less than 70%); E: giant foxtail, herbicidal effect (giant foxtail [25]): 4 (mortality of at least 70% and less than 90%); D: large crabgrass, herbicidal effect (large crabgrass [26]): 4 (mortality of at least 70% and less than 90%); M: posumbu knotweed, herbicidal effect (posumbu knotweed): 3 (mortality of at least 40% and less than 70%); K: redroot pigweed, herbicidal effect (redroot pigweed [27]): 1 (mortality of at least 5% and less than 20%); I: velvetleaf, herbicidal effect (velvetleaf [28]): 3 (mortality of at least 40% and less than 70%); G: water foxtail, herbicidal effect (water foxtail [29]): 5 (mortality of 90% or above (nearly complete death)); F: wild oat, herbicidal effect (wild oat [30]): 0 (mortality of less than 5% (almost ineffective)) |
| CCCOC(=O)N(c1ccccc1CN1COC(C)(C)C(F)C1=O)S(=O)(=O)C(F)(F)F (stereo not shown) [II-35] | 5 (mortality of 90% or above (nearly complete death)) | 5 (mortality of 90% or above (nearly complete death)) | 5 (mortality of 90% or above (nearly complete death)) | 0 (mortality of less than 5% (almost ineffective)) | 5 (mortality of 90% or above (nearly complete death)) | 5 (mortality of 90% or above (nearly complete death)) | 5 (mortality of 90% or above (nearly complete death)) | 4 (mortality of at least 70% and less than 90%) | 5 (mortality of 90% or above (nearly complete death)) | 4 (mortality of at least 70% and less than 90%) | 1 (mortality of at least 5% and less than 20%) | 0 (mortality of less than 5% (almost ineffective)) | 4 (mortality of at least 70% and less than 90%) | 3 (mortality of at least 40% and less than 70%) | 5 (mortality of 90% or above (nearly complete death)) | 2 (mortality of at least 20% and less than 40%) | 3 (mortality of at least 40% and less than 70%) | 5 (mortality of 90% or above (nearly complete death)) | 3 (mortality of at least 40% and less than 70%) | 4 (mortality of at least 70% and less than 90%) | A: barnyardgrass, herbicidal effect (barnyardgrass [20]): 5 (mortality of 90% or above (nearly complete death)); O: beadstraw, herbicidal effect (beadstraw [21]): 4 (mortality of at least 70% and less than 90%); N: common chickweed, herbicidal effect (common chickweed [22]): 3 (mortality of at least 40% and less than 70%); L: common lambsquater, herbicidal effect (common lambsquater [23]): 1 (mortality of at least 5% and less than 20%); J: common ragweed, herbicidal effect (common ragweed [24]): 3 (mortality of at least 40% and less than 70%); E: giant foxtail, herbicidal effect (giant foxtail [25]): 3 (mortality of at least 40% and less than 70%); D: large crabgrass, herbicidal effect (large crabgrass [26]): 5 (mortality of 90% or above (nearly complete death)); M: posumbu knotweed, herbicidal effect (posumbu knotweed): 3 (mortality of at least 40% and less than 70%); K: redroot pigweed, herbicidal effect (redroot pigweed [27]): 1 (mortality of at least 5% and less than 20%); I: velvetleaf, herbicidal effect (velvetleaf [28]): 0 (mortality of less than 5% (almost ineffective)); G: water foxtail, herbicidal effect (water foxtail [29]): 5 (mortality of 90% or above (nearly complete death)); F: wild oat, herbicidal effect (wild oat [30]): 0 (mortality of less than 5% (almost ineffective)) |
